Test results reported in patent US6737383B1, “Herbicidal oxadiazolidines” (priority 1999, dated 2004).

Columns and labels:
[1] = tested on: wild oat; test: Test B pre/postemergence wild oat; assay type: in vivo, Avena fatua; settings: for Plant response rating, Wild oats: scale of 0 to 10 where 0 is no effect and 10 is complete control
Procedure, shortened: (§1)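 Test chemicals in a non-phytotoxic solvent mixture with surfactant were sprayed preemergence onto planted seeds and postemergence onto plants 2 to 18 cm tall (1- to 4-leaf stage). After twelve to sixteen days in a greenhouse, injury was visually rated against untreated controls from 0 (no effect) to 10 (complete control).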

[2] = tested on: giant foxtail; test: Test B pre/postemergence giant foxtail; assay type: in vivo, Setaria faberii
Procedure, shortened: as §1

[3] = tested on: purple nutsedge; test: Test B pre/postemergence purple nutsedge; assay type: in vivo, Cyperus rotundus
Procedure, shortened: as §1

[4] = tested on: bamyardgrass; test: Test B flood test barnyardgrass; assay type: in vivo, Echinochloa crus-galli
Procedure, shortened: (§2)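 Flood test on plants grown to the 2-leaf stage; treated plants kept in greenhouse twelve to sixteen days, then visually rated against controls on a 0 (no effect) to 10 (complete control) scale.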

[5] = tested on: blackgrass; test: Test B pre/postemergence blackgrass; assay type: in vivo, Alopecurus myosuroides
Procedure, shortened: as §1

[6] = tested on: smallflower flatsedge; test: Test B flood test smallflower flatsedge; assay type: in vivo, Cyperus difformis
Procedure, shortened: as §2

[7] = tested on: duck salad; test: Test B flood test duck salad; assay type: in vivo, Heteranthera limosa
Procedure, shortened: as §2

[8] = tested on: morningglory; test: Test B pre/postemergence morningglory; assay type: in vivo, Ipomoea hederacea; settings: for Plant response rating, Morningglory: scale of 0 to 10 where 0 is no effect and 10 is complete control
Procedure, shortened: as §1

[9] = tested on: wheat; test: Test B pre/postemergence wheat; assay type: in vivo, Triticum aestivum; settings: for Plant response rating, Wheat: scale of 0 to 10 where 0 is no effect and 10 is complete control
Procedure, shortened: as §1

[10] = tested on: bedstraw; test: Test B pre/postemergence bedstraw; assay type: in vivo, Galium aparine; settings: for Bedstraw plant response rating: scale 0 to 10, 0 is no effect, 10 is complete control
Procedure, shortened: as §1

[11] = tested on: rape; test: Test B pre/postemergence rape; assay type: in vivo, Brassica napus; settings: for Plant response rating, Rape: scale of 0 to 10 where 0 is no effect and 10 is complete control
Procedure, shortened: as §1

[12] = tested on: pigweed; test: Test B pre/postemergence pigweed; assay type: in vivo, Amaranthus retroflexus; settings: for Plant response rating, Redroot pigweed: scale of 0 to 10 where 0 is no effect and 10 is complete control
Procedure, shortened: as §1

[13] = tested on: soybean; test: Test B pre/postemergence soybean; assay type: in vivo, Glycine max; settings: for Plant response rating, Soybean: scale of 0 to 10 where 0 is no effect and 10 is complete control
Procedure, shortened: as §1

[14] = tested on: sugar beet; test: Test B pre/postemergence sugar beet; assay type: in vivo, Beta vulgaris; settings: for Plant response rating, Sugarbeets: scale of 0 to 10 where 0 is no effect and 10 is complete control
Procedure, shortened: as §1

[15] = tested on: surinam grass; test: Test B pre/postemergence surinam grass; assay type: in vivo, Brachiaria decumbens
Procedure, shortened: as §1

[16] = tested on: cocklebur; test: Test B pre/postemergence cocklebur; assay type: in vivo, Xanthium strumarium
Procedure, shortened: as §1

[17] = Postemergence, Rate 250 g/ha, scale 0 to 10
[18] = Preemergence, Rate 250 g/ha, scale 0 to 10, 0 is no effect, 10 is complete control
[19] = Preemergence, Rate 500 g/ha, scale 0 to 10, 0 is no effect, 10 is complete control
[20] = Rate 62 g/ha, Postemergence, scale 0 to 10 (0 no effect, 10 complete control)
[21] = Rate 125 g/ha, Postemergence, scale 0 to 10, 0 is no effect, 10 is complete control
[22] = Postemergence, Rate 500 g/ha, scale of 0 to 10 where 0 is no effect and 10 is complete control
[23] = Preemergence, Rate 62 g/ha, scale of 0 to 10 where 0 is no effect and 10 is complete control
[24] = Preemergence, Rate 125 g/ha, scale of 0 to 10 where 0 is no effect and 10 is complete control
[25] = Rate 62 g/ha, flood test species, Pre-emergence, visual evaluation after twelve to sixteen days
[26] = Rate 125 g/ha, under heading Pre-emergence, flood test species, visual evaluation after twelve to sixteen days
[27] = Rate 250 g/ha, Pre-emergence (flood test species), scale 0 to 10, 0 is no effect, 10 is complete control
[28] = Rate 500 g/ha, Pre-emergence, flood test species, scale 0 to 10 (0 no effect, 10 complete control)

Question: Which “Wild oats plant response rating” value [1, 17] does the source give for `CC(C)N(C(=O)n1oc(=O)n(CC(=O)N(C)C)c1=O)c1ccc(Cl)cc1` [Compound 477] here?
Answer: 0

Question: And the “Plant response rating, Wild oats” value ([1]; Preemergence, Rate 62 g/ha)?
Answer: 0

Question: And the “Plant response rating, Wild oats” value ([1]; Preemergence, Rate 125 g/ha)?
Answer: 5

Question: What about the “Wild oats plant response rating” value [1, 18] of the same compound?
Answer: 5

Question: And the “Wild oats plant response rating” value [1, 19]?
Answer: 7

Question: What about the “Wild oats plant response rating” value [1, 20] of the same compound?
Answer: 0

Question: What about the “Wild oats plant response rating” value [1, 21] of the same compound?
Answer: 0

Question: What about the “Giant foxtail plant response rating” value [2, 17] of the same compound?
Answer: 6

Question: What about the “Giant foxtail plant response rating” value [2, 22] of the same compound?
Answer: 7

Question: What about the “Plant response rating, Giant foxtail” value [2, 23] of the same compound?
Answer: 6

Question: What about the “Plant response rating, Giant foxtail” value [2, 24] of the same compound?
Answer: 6

Question: And the “Giant foxtail plant response rating” value [2, 18]?
Answer: 9

Question: And the “Giant foxtail plant response rating” value [2, 19]?
Answer: 10

Question: And the “Giant foxtail plant response rating” value [2, 20]?
Answer: 2

Question: And the “Giant foxtail plant response rating” value [2, 21]?
Answer: 2

Question: What about the “Nutsedge plant response rating” value [3, 17] of the same compound?
Answer: 0

Question: What about the “Plant response rating, Nutsedge” value [3, 24] of the same compound?
Answer: 0

Question: And the “Nutsedge plant response rating” value [3, 18]?
Answer: 0

Question: And the “Nutsedge plant response rating” value [3, 19]?
Answer: 0

Question: What about the “Nutsedge plant response rating” value [3, 20] of the same compound?
Answer: 0

Question: What about the “Nutsedge plant response rating” value [3, 21] of the same compound?
Answer: 0

Question: And the “Plant response rating, Barnyardgrass (0 to 10 scale, 0 is no effect, 10 is complete control)” value [4, 25]?
Answer: 0

Question: And the “Barnyardgrass plant response rating (0 to 10 scale, 0 is no effect, 10 is complete control)” value [4, 26]?
Answer: 0

Question: And the “Barnyardgrass plant response rating” value [4, 27]?
Answer: 0

Question: And the “Barnyardgrass plant response rating” value [4, 28]?
Answer: 0

Question: What about the “Blackgrass plant response rating” value [5, 17] of the same compound?
Answer: 6

Question: What about the “Blackgrass plant response rating” value [5, 22] of the same compound?
Answer: 6

Question: And the “Plant response rating, Blackgrass” value [5, 23]?
Answer: 0

Question: And the “Plant response rating, Blackgrass” value [5, 24]?
Answer: 1

Question: What about the “Blackgrass plant response rating” value [5, 18] of the same compound?
Answer: 7

Question: And the “Blackgrass plant response rating” value [5, 19]?
Answer: 8

Question: And the “Blackgrass plant response rating” value [5, 20]?
Answer: 0

Question: And the “Blackgrass plant response rating” value [5, 21]?
Answer: 0

Question: What about the “Plant response rating, S. Flatsedge (0 to 10 scale, 0 is no effect, 10 is complete control)” value [6, 25] of the same compound?
Answer: 0

Question: And the “S. Flatsedge plant response rating (0 to 10 scale, 0 is no effect, 10 is complete control)” value [6, 26]?
Answer: 0

Question: And the “S. Flatsedge plant response rating” value [6, 27]?
Answer: 0

Question: What about the “S. Flatsedge plant response rating” value [6, 28] of the same compound?
Answer: 0

Question: What about the “Plant response rating, Ducksalad (0 to 10 scale, 0 is no effect, 10 is complete control)” value [7, 25] of the same compound?
Answer: 0

Question: What about the “Ducksalad plant response rating (0 to 10 scale, 0 is no effect, 10 is complete control)” value [7, 26] of the same compound?
Answer: 0

Question: And the “Ducksalad plant response rating” value [7, 27]?
Answer: 0

Question: What about the “Ducksalad plant response rating” value [7, 28] of the same compound?
Answer: 0

Question: What about the “Morningglory plant response rating” value [8, 17] of the same compound?
Answer: 10

Question: What about the “Plant response rating, Morningglory” value ([8]; Preemergence, Rate 62 g/ha) of the same compound?
Answer: 0

Question: What about the “Plant response rating, Morningglory” value ([8]; Preemergence, Rate 125 g/ha) of the same compound?
Answer: 0

Question: And the “Morningglory plant response rating” value [8, 18]?
Answer: 0

Question: What about the “Morningglory plant response rating” value [8, 19] of the same compound?
Answer: 0

Question: And the “Morningglory plant response rating” value [8, 20]?
Answer: 6

Question: And the “Morningglory plant response rating” value [8, 21]?
Answer: 7

Question: What about the “Wheat plant response rating” value [9, 17] of the same compound?
Answer: 0

Question: And the “Plant response rating, Wheat” value ([9]; Preemergence, Rate 62 g/ha)?
Answer: 0

Question: What about the “Plant response rating, Wheat” value ([9]; Preemergence, Rate 125 g/ha) of the same compound?
Answer: 0

Question: What about the “Wheat plant response rating” value [9, 18] of the same compound?
Answer: 0

Question: What about the “Wheat plant response rating” value [9, 19] of the same compound?
Answer: 0

Question: What about the “Wheat plant response rating” value [9, 20] of the same compound?
Answer: 0

Question: What about the “Wheat plant response rating” value [9, 21] of the same compound?
Answer: 0

Question: And the “Plant response rating, Bedstraw” value [10, 23]?
Answer: 0

Question: And the “Bedstraw plant response rating” value ([10]; Preemergence, Rate 500 g/ha)?
Answer: 3

Question: And the “Bedstraw plant response rating” value ([10]; Rate 125 g/ha, Postemergence)?
Answer: 0

Question: And the “Rape plant response rating” value [11, 17]?
Answer: 1

Question: What about the “Plant response rating, Rape” value ([11]; Preemergence, Rate 62 g/ha) of the same compound?
Answer: 0

Question: And the “Plant response rating, Rape” value ([11]; Preemergence, Rate 125 g/ha)?
Answer: 0

Question: What about the “Rape plant response rating” value [11, 18] of the same compound?
Answer: 0

Question: What about the “Rape plant response rating” value [11, 19] of the same compound?
Answer: 2

Question: What about the “Rape plant response rating” value [11, 20] of the same compound?
Answer: 0

Question: And the “Rape plant response rating” value [11, 21]?
Answer: 0

Question: What about the “Redroot pigweed plant response rating” value [12, 17] of the same compound?
Answer: 2

Question: And the “Plant response rating, Redroot pigweed” value ([12]; Preemergence, Rate 62 g/ha)?
Answer: 0

Question: What about the “Plant response rating, Redroot pigweed” value ([12]; Preemergence, Rate 125 g/ha) of the same compound?
Answer: 1

Question: And the “Redroot pigweed plant response rating” value [12, 18]?
Answer: 6

Question: And the “Redroot pigweed plant response rating” value [12, 19]?
Answer: 8

Question: And the “Redroot pigweed plant response rating” value [12, 20]?
Answer: 0

Question: What about the “Redroot pigweed plant response rating” value [12, 21] of the same compound?
Answer: 0

Question: And the “Soybean plant response rating” value [13, 17]?
Answer: 2

Question: And the “Plant response rating, Soybean” value ([13]; Preemergence, Rate 62 g/ha)?
Answer: 0

Question: What about the “Plant response rating, Soybean” value ([13]; Preemergence, Rate 125 g/ha) of the same compound?
Answer: 0

Question: And the “Soybean plant response rating” value [13, 18]?
Answer: 3

Question: What about the “Soybean plant response rating” value [13, 19] of the same compound?
Answer: 4

Question: And the “Soybean plant response rating” value [13, 20]?
Answer: 1

Question: And the “Soybean plant response rating” value [13, 21]?
Answer: 1

Question: What about the “Sugarbeets plant response rating” value [14, 17] of the same compound?
Answer: 0

Question: What about the “Plant response rating, Sugarbeets” value ([14]; Preemergence, Rate 62 g/ha) of the same compound?
Answer: 0

Question: What about the “Plant response rating, Sugarbeets” value ([14]; Preemergence, Rate 125 g/ha) of the same compound?
Answer: 0

Question: What about the “Sugarbeets plant response rating” value [14, 18] of the same compound?
Answer: 0

Question: And the “Sugarbeets plant response rating” value [14, 19]?
Answer: 0

Question: And the “Sugarbeets plant response rating” value [14, 20]?
Answer: 0

Question: What about the “Sugarbeets plant response rating” value [14, 21] of the same compound?
Answer: 0

Question: And the “B. signalgrass plant response rating” value ([15]; Postemergence, Rate 250 g/ha, scale 0 to 10, 0 no effect, 10 complete control)?
Answer: 5

Question: And the “B. signalgrass plant response rating” value [15, 22]?
Answer: 5

Question: And the “Plant response rating, B. signalgrass” value [15, 23]?
Answer: 0

Question: And the “Plant response rating, B. signalgrass” value [15, 24]?
Answer: 2

Question: What about the “B. signalgrass plant response rating” value [15, 18] of the same compound?
Answer: 4

Question: What about the “B. signalgrass plant response rating” value [15, 19] of the same compound?
Answer: 6

Question: And the “B. signalgrass plant response rating” value [15, 20]?
Answer: 0

Question: And the “B. signalgrass plant response rating” value [15, 21]?
Answer: 0

Question: And the “Cocklebur plant response rating” value [16, 17]?
Answer: 0

Question: And the “Cocklebur plant response rating” value [16, 22]?
Answer: 0

Question: What about the “Plant response rating, Cocklebur” value [16, 23] of the same compound?
Answer: 0

Question: And the “Plant response rating, Cocklebur” value [16, 24]?
Answer: 0

Question: What about the “Cocklebur plant response rating” value [16, 18] of the same compound?
Answer: 0

Question: And the “Cocklebur plant response rating” value [16, 19]?
Answer: 0

Question: What about the “Cocklebur plant response rating” value [16, 20] of the same compound?
Answer: 0

Question: And the “Cocklebur plant response rating” value [16, 21]?
Answer: 0
